Consider one compound from patent US11033624B2, “Medical item for prevention and treatment of ear infection” (Novaflux Inc., priority 2010, dated 2021).

This data set is described as follows: Thermogravimetric analysis weight loss. Format: physicochemical. The settings on record: 250° C., pure state, heating rate 10° C./min. How it is done: An anti-biotic agent was selected consisting of ciprofloxacin betaine crystalline powder (C.A.S. Registry No. 85721-33-1). Ciprofloxacin is a broad spectrum antimicrobial agent having less than 1 percent weight loss at a temperature of 250° C. when measured in a pure state by thermogravimetric analysis at a heating rate of 10° C./min. The ciprofloxacin melted over a temperature range of 252° C. to 271° C.

In the case of `O=C(O)c1cn(C2CC2)c2cc(N3CCNCC3)c(F)cc2c1=O` [Ciprofloxacin, ciprofloxacin betaine], the “weight loss by thermogravimetric analysis” value was “less than 1%”.
